Data on three compounds can be found in EP4269424A1, “NOVEL ANTIVIRAL COMPOUNDS AND USE THEREOF” (priority 2022, dated 2023).

In general, Kd refers to the constant that tells how readily two partners part at equilibrium.

One data set concerns the target G3BP1. It is filed as binding, human.

No end group written: not given here.

In the case of `CC[C@H](C)[C@H](NC(=O)CNC(=O)[C@H](CO)NC(=O)[C@H](C)NC(=O)[C@H](CC(C)C)NC(=O)[C@H](C)NC(=O)[C@H](CC(=O)O)NC(=O)[C@@H](NC(=O)[C@H](CCC(=O)O)NC(=O)[C@H](Cc1c[nH]cn1)NC(=O)[C@H](CCC(=O)O)NC(=O)[C@H](CC(=O)O)NC(=O)[C@H](Cc1ccccc1)NC(=O)[C@H](CC(=O)O)NC(=O)CNC(=O)[C@H](Cc1ccccc1)NC(=O)[C@@H](NC(=O)[C@H](CC(C)C)NC(=O)[C@H](CCCNC(=N)N)NC(=O)[C@H](CCCNC(=N)N)NC(=O)[C@H](CCCNC(=N)N)NC(=O)[C@H](CCC(N)=O)NC(=O)[C@H](CCCNC(=N)N)NC(=O)[C@H](CCCNC(=N)N)NC(=O)[C@H](CCCCN)NC(=O)[C@H](CCCCN)NC(=O)[C@H](CCCNC(=N)N)NC(=O)CNC(=O)[C@@H](N)Cc1ccc(O)cc1)[C@@H](C)O)C(C)C)C(=O)N[C@H](C(=O)N[C@@H](Cc1ccccc1)C(=O)NCC(=O)N[C@@H](CC(=O)O)C(=O)N[C@@H](Cc1ccccc1)C(=O)N[C@@H](CC(=O)O)C(=O)N[C@@H](CC(=O)O)C(=O)O)[C@@H](C)O` [G3BPi WT], the cell viability entry in the data set on Vero E6 cells is reported as “not affected”.
For `CC[C@H](C)[C@H](NC(=O)CNC(=O)[C@H](CO)NC(=O)[C@H](C)NC(=O)[C@H](CC(C)C)NC(=O)[C@H](C)NC(=O)[C@H](CCC(=O)O)NC(=O)[C@H](Cc1c[nH]cn1)NC(=O)[C@H](CCC(=O)O)NC(=O)[C@H](CC(=O)O)NC(=O)[C@H](Cc1ccccc1)NC(=O)[C@H](CC(=O)O)NC(=O)CNC(=O)[C@H](Cc1ccccc1)NC(=O)[C@@H](NC(=O)[C@@H](N)CC(C)C)[C@@H](C)O)C(=O)N[C@H](C(=O)N[C@@H](Cc1ccccc1)C(=O)NCC(=O)N[C@@H](CC(=O)O)C(=O)N[C@@H](Cc1ccccc1)C(=O)N[C@@H](CC(=O)O)C(=O)N[C@@H](CC(=O)O)C(=O)N[C@@H](Cc1c[nH]c2ccccc12)C(=O)O)[C@@H](C)O` [G3BPi spacer2], the dissociation constant (Kd) at G3BP1 was 4.4 µM.
At G3BP1, “LTFGDFTGSTGSTGSTGITFGDFDDW [G3BPi spacer3]” registered a Kd of 2.4 µM. This Kd is about 1.8-fold lower than that of the compound before.
